In ChEMBL document CHEMBL1201862, “PubChem BioAssay data set” (2004):
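96-well plates; 48 h exposure; 5 concentrations. Endpoints by linear interpolation between flanking doses. Not reached: highest tested concentration assigned. GI50 is the concentration that inhibits growth by half.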 Calls of active or inactive are those of the source. No stated cut-off is given here; in the data, active = GI50 up to about 1.1 µM and inactive = higher.

How the values were obtained:
Experiment in all cases: inhibition of tumour cell growth, NCI panel, 48 h
[1] = system: SNB-19
[2] = system: HCC 2998
[3] = system: Hs-578T
[4] = system: DU-145
[5] = system: HOP-62
[6] = system: HT-29
[7] = system: MDA-N
[8] = system: M14
[9] = system: UACC-62
[10] = system: CCRF-CEM
[11] = system: HL-60
[12] = system: MDA-MB-231
[13] = system: COLO 205
[14] = system: A498
[15] = system: KM12
[16] = system: OVCAR-8
[17] = system: SF-539
[18] = system: SK-MEL-2
[19] = system: CAKI-1
[20] = system: MOLT-4
[21] = system: K562
[22] = system: SK-MEL-5
[23] = system: LOX IMVI
[24] = system: MCF7
[25] = system: 786-0
[26] = system: IGROV-1
[27] = system: HCT-116
[28] = system: T47D
[29] = system: HCT-15
[30] = system: HOP-92
[31] = system: OVCAR-4
[32] = system: RXF 393
[33] = system: SR
[34] = system: OVCAR-5
[35] = system: UO-31
[36] = system: NCI-H23
[37] = system: SNB-75
[38] = system: TK-10
[39] = system: SF-295
[40] = system: SN12C
[41] = system: NCI-H522
[42] = system: SW-620
[43] = system: MDA-MB-435
[44] = system: UACC-257
[45] = system: SF-268
[46] = system: A549
[47] = system: Malme-3M
[48] = system: EKVX
[49] = system: RPMI-8226
[50] = system: PC-3
[51] = system: OVCAR-3
[52] = system: NCI/ADR-RES
[53] = system: U-251
[54] = system: ACHN
[55] = system: SK-MEL-28
[56] = system: BT-549
[57] = system: NCI-H226
[58] = system: NCI-H460

## CN(C)Cc1cc(C(=O)/C=C/c2ccc(/C=C/C(=O)c3cc(CN(C)C)c(O)c(CN(C)C)c3)cc2)cc(CN(C)C)c1O
[1]
  GI50: > 100 µM (inactive)
[2]
  GI50: 16.9 µM (inactive)
[3]
  GI50: 58.2 µM (inactive)
[4]
  GI50: 38.5 µM (inactive)
[5]
  GI50: 26.8 µM (inactive)
[6]
  GI50: 13.5 µM (inactive)
[7]
  GI50: > 10 µM (inactive)
[8]
  GI50: 17 µM (inactive)
[9]
  GI50: 25.9 µM (inactive)
[10]
  GI50: 9.57 µM (inactive)
[11]
  GI50: 14.1 µM (inactive)
[12]
  GI50: 20.3 µM (inactive)
[13]
  GI50: 14.4 µM (inactive)
[14]
  GI50: 57.9 µM (inactive)
[15]
  GI50: 17.7 µM (inactive)
[16]
  GI50: 49.3 µM (inactive)
[17]
  GI50: 24.4 µM (inactive)
[18]
  GI50: 20.2 µM (inactive)
[19]
  GI50: 39 µM (inactive)
[20]
  GI50: 12.7 µM (inactive)
[21]
  GI50: 25.3 µM (inactive)
[22]
  GI50: 42.9 µM (inactive)
[23]
  GI50: 11.9 µM (inactive)
[24]
  GI50: 9.42 µM (inactive)
[25]
  GI50: 19.6 µM (inactive)
[26]
  GI50: 35.2 µM (inactive)
[27]
  GI50: 15.2 µM (inactive)
[28]
  GI50: > 100 µM (inactive)
[29]
  GI50: 29.6 µM
[30]
  GI50: 24.2 µM (inactive)
[31]
  GI50: 50.6 µM (inactive)
[32]
  GI50: 26.7 µM (inactive)
[33]
  GI50: 22.8 µM (inactive)
[34]
  GI50: 17.4 µM (inactive)
[35]
  GI50: 71.8 µM (inactive)
[36]
  GI50: 18.7 µM (inactive)
[37]
  GI50: > 100 µM (inactive)
[38]
  GI50: 36.8 µM (inactive)
[39]
  GI50: 29.2 µM (inactive)
[40]
  GI50: 28.9 µM (inactive)
[41]
  GI50: 10.5 µM (inactive)
[42]
  GI50: 20.8 µM (inactive)
[43]
  GI50: 24 µM (inactive)
[44]
  GI50: 24.8 µM (inactive)
[45]
  GI50: 27.5 µM (inactive)
[46]
  GI50: 43 µM (inactive)
[47]
  GI50: 34.6 µM (inactive)
[48]
  GI50: 39.2 µM (inactive)
[49]
  GI50: 23.4 µM (inactive)
[50]
  GI50: 15.1 µM (inactive)
[51]
  GI50: 32.1 µM (inactive)
[52]
  GI50: > 100 µM (inactive)
[53]
  GI50: 15.6 µM (inactive)
[54]
  GI50: 23.4 µM (inactive)
[55]
  GI50: 29 µM (inactive)
[56]
  GI50: 18.6 µM (inactive)

## CC(=O)Nc1cc2cc(NS(=O)(=O)c3ccc(Cl)c(Cl)c3)ccc2oc1=O
[1]
  GI50: 34.4 µM (inactive)
[2]
  GI50: 40.5 µM (inactive)
[3]
  GI50: 22.4 µM (inactive)
[4]
  GI50: > 100 µM (inactive)
[5]
  GI50: 19.8 µM (inactive)
[6]
  GI50: 35.3 µM (inactive)
[7]
  GI50: 51.8 µM (inactive)
[8]
  GI50: 64.1 µM (inactive)
[9]
  GI50: 24.4 µM (inactive)
[10]
  GI50: 53.8 µM (inactive)
[11]
  GI50: 43.5 µM (inactive)
[57]
  GI50: 31.8 µM (inactive)
[12]
  GI50: 17.2 µM (inactive)
[13]
  GI50: 25.5 µM (inactive)
[14]
  GI50: 20 µM (inactive)
[15]
  GI50: 25.1 µM (inactive)
[16]
  GI50: 17.8 µM (inactive)
[17]
  GI50: 25.1 µM (inactive)
[18]
  GI50: 20.3 µM (inactive)
[19]
  GI50: 20 µM (inactive)
[20]
  GI50: 27.4 µM (inactive)
[21]
  GI50: 56.5 µM (inactive)
[22]
  GI50: 28.1 µM (inactive)
[23]
  GI50: 20 µM (inactive)
[24]
  GI50: 21.2 µM (inactive)
[25]
  GI50: 17.4 µM (inactive)
[26]
  GI50: 75.9 µM (inactive)
[27]
  GI50: 28.2 µM (inactive)
[28]
  GI50: 3.21 µM (inactive)
[29]
  GI50: 90.6 µM
[30]
  GI50: 20.8 µM (inactive)
[31]
  GI50: 30.3 µM (inactive)
[32]
  GI50: 12.5 µM (inactive)
[33]
  GI50: 33.9 µM (inactive)
[58]
  GI50: 37.8 µM (inactive)
[34]
  GI50: > 100 µM (inactive)
[35]
  GI50: 46 µM (inactive)
[36]
  GI50: > 100 µM (inactive)
[38]
  GI50: 43.2 µM (inactive)
[39]
  GI50: 19.6 µM (inactive)
[40]
  GI50: 25.8 µM (inactive)
[41]
  GI50: 23.4 µM (inactive)
[42]
  GI50: 50.7 µM (inactive)
[43]
  GI50: 36.1 µM (inactive)
[44]
  GI50: > 100 µM (inactive)
[45]
  GI50: 26.2 µM (inactive)
[46]
  GI50: 32.7 µM (inactive)
[48]
  GI50: 68.5 µM (inactive)
[49]
  GI50: 40.3 µM (inactive)
[50]
  GI50: 22.4 µM (inactive)
[51]
  GI50: > 100 µM (inactive)
[52]
  GI50: 34.2 µM (inactive)
[53]
  GI50: 22.6 µM (inactive)
[54]
  GI50: 42 µM (inactive)
[55]
  GI50: 35 µM (inactive)
[56]
  GI50: 49.1 µM (inactive)
